# Measurements as given in PubChem BioAssay (NCI).
#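 1) Cells in 96-well plates. 2) Compound, 48 h, 5 concentrations. 3) Linear interpolation between surrounding doses. 4) Unreached endpoint = highest concentration. GI50 marks 50% less growth. The concentration for full growth arrest is given as TGI.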
# Key:
# Assay in all cases: NCI-60 cell line screen, 48 h
# A498 renal = tested on: A498 renal
# CAKI-1 renal = tested on: CAKI-1 renal
# CCRF-CEM leukemia = tested on: CCRF-CEM leukemia
# HCT-116 colon = tested on: HCT-116 colon
# NCI-H23 lung = tested on: NCI-H23 lung
# OVCAR-8 ovarian = tested on: OVCAR-8 ovarian
# SF-295 CNS = tested on: SF-295 CNS
# SK-MEL-2 melanoma = tested on: SK-MEL-2 melanoma
# SNB-19 CNS = tested on: SNB-19 CNS
# SW-620 colon = tested on: SW-620 colon
Structure (SMILES),TGI (A498 renal) [µM],TGI (CAKI-1 renal) [µM],TGI (CCRF-CEM leukemia) [µM],TGI (HCT-116 colon) [µM],TGI (NCI-H23 lung) [µM],TGI (OVCAR-8 ovarian) [µM],TGI (SF-295 CNS) [µM],TGI (SK-MEL-2 melanoma) [µM],TGI (SNB-19 CNS) [µM],TGI (SW-620 colon) [µM],GI50 (A498 renal) [µM],GI50 (CAKI-1 renal) [nM],GI50 (CCRF-CEM leukemia) [µM],GI50 (HCT-116 colon) [nM],GI50 (NCI-H23 lung) [µM],GI50 (OVCAR-8 ovarian) [µM],GI50 (SF-295 CNS) [nM],GI50 (SK-MEL-2 melanoma) [µM],GI50 (SNB-19 CNS) [µM],GI50 (SW-620 colon) [µM]
CC(SC1=CC(=O)c2c(O)ccc(O)c2C1=O)C(=O)O (stereo not given),> 100,72.2,14.8,> 72.3,> 90.4,> 89.3,> 100,> 100,> 100,> 55.6,,,,,,,,,,
CC/C=C\C[C@H](O)C/C=C1/C(=O)C=C[C@@H]1C/C=C\CCCC(N)=O,7.07,3.92,8.07,2.47,5.27,11.4,6.23,5.69,21.6,5.33,2.9,1620,1.38,1020,2.13,3.03,2520,2.31,7.43,1.58
Cc1ccc(S(=O)(=O)NCCN2c3nc4ccccc4cc3Sc3cc4ccccc4nc32)cc1,> 84.9,> 71.7,> 100,> 100,> 100,> 100,18.5,> 80.2,67.7,> 100,24.4,13800,> 100,7110,13,6.01,4040,> 37.4,10.5,> 100
CC1=C(N2CC2)C(=O)c2nc3n(c2C1=O)CCC3O (stereo not given),0.521,0.777,13.4,1.52,0.262,0.688,0.512,1.4,0.97,0.726,,,,,,,,,,
NC(N)=NNC(=O)C(=O)O,> 100,> 100,> 100,> 100,> 100,> 100,> 100,> 100,> 100,> 100,,,,,,,,,,
CCCN(CCCCC(NC(C)=O)C(=O)NCc1ccccc1)C(=O)NC (stereo not given),> 100,> 100,> 100,> 100,> 100,> 100,> 100,> 100,> 100,> 100,,,,,,,,,,
Cc1ccc(C)c(NC(=O)/C(=N\NC(N)=S)C(C#N)c2ccccc2)c1 (stereo not given),> 100,> 100,> 100,> 100,> 100,> 100,> 100,> 100,> 100,> 100,,,,,,,,,,
Cn1c2ccccc2n2c3nc4ccccc4nc3c(C#N)c12,9.72,> 100,> 100,> 100,> 100,> 100,> 100,> 100,> 100,> 100,,,,,,,,,,
O=C(O)c1nnsc1COCc1ccccc1,> 100,> 100,> 100,> 100,> 100,> 100,> 100,> 100,> 100,> 100,,,,,,,,,,
O=C(O)C(Cc1ccc(O)c([N+](=O)[O-])c1)N1C(=O)c2ccccc2C1=O (stereo not given),> 100,> 100,> 100,> 100,> 100,> 100,> 100,> 100,> 100,> 100,,,,,,,,,,
CCCCCCCCCCCC(=O)C1=C(O)C(O)CCC1=O (stereo not given),43.2,70.6,40.6,38.5,20,36.6,30.5,25,49.4,60,,,,,,,,,,
CCN(CC)CC(C)Nc1ccc(C)c2sc3ccccc3c(=O)c12 (stereo not given),8.07,14.1,18,12.3,19.8,25.3,8.56,25.5,19.5,13.7,1.92,3040,4.33,3070,5.94,6.86,2660,9.07,6.44,3.33
CC1(C)C(=O)/C(=C\c2ccco2)C[C@]2(C)[C@H]3CC=C4[C@@H]5C[C@](C)(C(=O)O)CC[C@]5(C)CC[C@@]4(C)[C@]3(C)CC[C@@H]12,22.4,28.2,32.6,26.1,25.4,42.4,24.6,36.8,22.7,25.9,10.3,10600,5.9,7270,8.89,6,7060,15.1,10.2,10.2
O=C(Nc1ccc(Br)cc1)c1cc(Br)cc(Br)c1O,4.37,4.59,> 100,8.31,6.8,11,5,6.12,> 100,12.6,1.82,1730,3.73,2410,2.18,2.89,1830,2.27,3.55,3.39
CCOC(=O)/C(C1=CC(=O)C(=O)c2ccccc21)=C(/C)NCc1ccccc1,10.4,3.58,0.0649,2.85,3.71,9.5,3.68,> 100,> 100,3.3,4.77,1610,0.0144,1520,1.85,3.69,1760,5.87,3.24,1.64
O=S(=O)(O)c1ccc2cc(N=Nc3cc(S(=O)(=O)O)c4cccnc4c3O)ccc2c1,> 100,> 100,> 100,> 100,> 100,> 100,> 100,> 100,> 100,> 100,,,,,,,,,,
COc1ccc(N=Cc2ccc(N(CCC#N)CCC#N)cc2)cc1,> 100,> 100,> 100,> 100,> 100,> 100,> 100,> 84.2,> 100,> 100,,,,,,,,,,
